Measurements from patent US20210113501A1, “METHOD OF ADMINISTERING BETA-HYDROXY-BETA-METHYLBUTYRATE (HMB)” (Metabolic Technologies, Inc., priority 2009, published 2021).
“And” between values parts separate entries of the source, which are not always exact repeats. Equal entries are not always repeated. Where two headings read alike, the source gives them in different places.

Legend:
[1] = Study 1: plasma HMB after a single dose, sampled to 180 min; assay type: in vivo, human; conditions: for AUC plasma HMB / greater area under the curve (AUC) than CaHMB: 180 min; for Cpeak (peak plasma HMB concentration): single dose 1 g CaHMB or 0.80 g free acid
Source text: (§1) Human subjects. In study 1, four male and four female college-aged subjects were studied. In study 2, an additional four male and four female college-aged subjects were studied. The protocols for both studies were approved by the Iowa State University IRB and each subject gave informed consent to participate in the study. Due to the nature of the treatments, neither the subjects nor the researchers could be blinded.
(§2) Treatments. The same treatments were given to the subjects in both study groups. The three treatments were given in random order to each subject with at least a one week washout period between treatments. The treatments were supplied by Metabolic Technologies, Inc. (MTI, Ames, Iowa) and were prepared with food grade ingredients. One gram of CaHMB or the equivalent HMB in free acid in a gel form was administered to the subjects. The CaHMB capsules were obtained from a commercial supplement manufacturer (Optimum Nutrition, Aurora, Ill.) while the HMB-acid gel was prepared at MTI laboratories. Briefly, the HMB-acid was adjusted to a pH 4.5 with potassium carbonate (K2CO3) and flavors and sweeteners were then added. The 1.0 g CaHMB capsule was taken with 355 mL of water (approx. 12 oz.). The free acid gel dosage was 0.80 g and was equivalent to the free acid contained in the CaHMB in the capsule. The free acid gel treatments were either swallowed (FASW) or held sublingual for 15 seconds and then swallowed (FASL). FASW consisted of expelling the entire dose into the mouth in a 3 ml syringe, swallowing, and then following this with 355 mL of water. FASL subjects were instructed to place the entire dosage under the tongue and hold the dosage for 15 sec before swallowing. They then rinsed and followed the dose with 355 mL of water.
Study 1 design. For study 1 the subjects reported to the laboratory in the morning following an overnight fast. Before ingestion of one of the supplemental treatments, a flexible sterile polyethylene catheter was inserted into a forearm vein using sterile procedures and a pre-ingestion blood sample was drawn. Subsequent blood samples were taken at 0, 2, 5, 10, 15, 25, 35, 45, 60, 90, 120 and 180 min after ingestion of the treatment. Plasma was separated and samples were stored frozen at −70° C. for analysis of HMB concentration. In addition, a portion of the pre-ingestion and 180 minute blood samples were used for measurements (LabCorp, Kansas City, Mo.) of glucose, uric acid, blood urea nitrogen (BUN), creatinine, sodium, potassium, chloride, carbon dioxide, phosphorous, protein, albumin, globulin, albumin:globulin ratio, total bilirubin, direct bilirubin, alkaline phosphatase, lactate dehydrogenase, aspartate aminotransferase (AST), alanine aminotransferase (ALT), gamma-glutamyl transpeptidase (GGT), iron binding capacity (TIBC), unsaturated iron binding capacity (UIBC), iron, iron saturation, total cholesterol, triglycerides, high density lipoprotein (HDL), low density lipoprotein (LDL), and cholesterol ratio. A complete blood count (CBC) was also performed before and after the 180 min treatment period. Subjects also completed a brief questionnaire to report any physical symptoms (such as nausea, headache, etc) they may have experienced during the experiment.
(§3) HMB analysis. Plasma and urine HMB were analyzed by gas chromatography/mass spectrometry (GC/MS) as previously described.(27)
Calculations and statistics. Areas under the curves were calculated for each subject using the trapezoidal method that sums the area above baseline.(51) Half-life of plasma HMB was calculated for study 2. The following equations were used: […]
The data were analyzed using a crossover design with Proc GLM in SAS. (45) For the timed sampling of plasma HMB a repeated measures polynomial model was used. The model included subject, order, and treatment main effects and time by treatment interaction where appropriate. […]

[2] = Study 2: plasma HMB and urinary HMB excretion over 24 h; assay type: in vivo, human; conditions: Study 2; for AUC plasma HMB: 24 h; for Clearance: Vd assumed 20% of body weight; for tpeak: unit as in Table 5; for AUC greater than for CaHMB capsules: over 24 hours
Source text: as §1, §2
Study 2 design. Study 2 was conducted similar to study 1 with the following modifications. In study 2, plasma levels of HMB were measured for 1440 min (24 h) and total urine collection was also performed for measurement of urinary HMB excretion during this period. After the 180 min blood sample, the subjects were allowed to leave the laboratory and were instructed to return to the laboratory for additional blood samples at 360, 720, and 1440 min after the ingestion of the supplement. As in study 1, each subject took each of the treatments with at least a one week washout period between treatments. Samples were again stored frozen at −70° C. for analysis of plasma and urinary HMB concentrations. Pre-ingestion, 180 min and 1440 min blood samples were again assayed for the same measurements already for study 1. Subjects were provided with a standardized lunch after the 180 min blood sampling and instructed to eat this at approximately 240 min post ingestion. Following the 720 min blood sample, subjects were instructed to eat a normal evening meal before 10 pm. Subjects reported back to the laboratory the following morning for the fasted 1440 min blood sample. A urine collection container was provided and subjects collected all urine produced during the experimental 24 h experimental period. The urine was stored refrigerated when not being collected. Urine volumes were measured and samples of the total urine collection were taken and stored frozen at −70° C. until analyzed for HMB.
as §3
Calculations and statistics. Areas under the curves were calculated for each subject using the trapezoidal method that sums the area above baseline.(51) Half-life of plasma HMB was calculated for study 2. The following equations were used:
k=(ln(Cpeak)−ln(Ctrough))/Tinterval
Peak plasma concentrations for each subject were used for Cpeak. […] Tpeak was the time at which Cpeak was measured and Tinterval is the time from Tpeak until the time at Ctrough (720 min). The extracellular fluid compartment was assumed to be 20% of body weight and calculated using equation 3 below(1). […]

[3] = listed as Free Acid Gel Sublingual
[4] = listed as Free Acid Gel Swallow

## CC(C)(O)CC(=O)[O-].CC(C)(O)CC(=O)[O-].[Ca+2] [CaHMB, calcium β-hydroxy-β-methylbutryate, reference compound]
[1]
  time of peak plasma HMB: 122 ± 15.6 min
  tpeak (time to reach peak plasma concentration): 121.9 ± 15.6 min
  AUC plasma HMB: 13,997 ± 1,534 nmol/180 min
  Cpeak (peak plasma HMB concentration): 131 ± 10 nmol/mL and 131.2 ± 10.1 nmol/mL
[2]
  24 h Urine HMB: 1.00 ± 0.13 mmol
  24 h Urine HMB, % initial dose: 14.7±2.0 % initial dose
  Cpeak (peak plasma HMB concentration): 131.2 ± 6.0 nmol/mL
  Half-life of plasma HMB: 3.17 ± 0.22 h
  time to peak plasma HMB concentration: 135.0 ± 17.0 min
  AUC plasma HMB: 46,281 ± 2,717 nmol/1440 min
  Clearance: 53.9 ± 4.2 mL/min
  tpeak: 135 ± 17 min
[2]; p<0.05
  plasma HMB level at 360 and 720 min versus free acid gel: slightly higher

## CC(C)(O)CC(=O)O [HMB-Acid Gel Sublingual, 3-hydroxy-3-methylbutyric acid]
[1]; listed as FASL
  greater area under the curve (AUC) than CaHMB: 91%
  tpeak (time to reach peak plasma concentration): 36.3 ± 1.3 min
  Cpeak (peak plasma HMB concentration): 231 ± 21 nmol/mL
[1]; [3]
  AUC plasma HMB: 26,778 ± 1,980 nmol/180 min
  tpeak (time to reach peak plasma concentration): 36.3 ± 1.3 min
  Cpeak (peak plasma HMB concentration): 231.2 ± 21.0 nmol/mL
[2]
  24 h Urine HMB: 1.16 ± 0.17 mmol
  24 h Urine HMB, % initial dose: 17.2 ± 2.5 % initial dose
  Cpeak (peak plasma HMB concentration): 247.6 ± 19.8 nmol/mL
  AUC plasma HMB: 52,886 ± 2,729 nmol/1440 min
  Clearance: 66.9 ± 1.6 mL/min
  tpeak: 38.8 ± 2.6 min
[2]; listed as FASL
  24 h Urine HMB, % initial dose: 17.2±2.5 % initial dose
  Cpeak (peak plasma HMB concentration): 247.6 ± 19.8 nmol/mL
  Half-life of plasma HMB: 2.51 ± 0.14 h
  time to peak plasma HMB concentration: 38.8 ± 2.6 min
  AUC greater than for CaHMB capsules: 14.3%

## CC(C)(O)CC(=O)O [HMB-Acid Gel Swallow, 3-hydroxy-3-methylbutyric acid]
[1]; listed as FASW
  greater area under the curve (AUC) than CaHMB: 97%
  tpeak (time to reach peak plasma concentration): 33.1 ± 4.6 min
  Cpeak (peak plasma HMB concentration): 259 ± 24 nmol/mL
[1]; [4]
  AUC plasma HMB: 27,532 ± 1,742 nmol/180 min
  tpeak (time to reach peak plasma concentration): 33.1 ± 4.6 min
  Cpeak (peak plasma HMB concentration): 259.1 ± 23.9 nmol/mL
[2]
  24 h Urine HMB: 1.21 ± 0.19 mmol
  24 h Urine HMB, % initial dose: 17.8 ± 2.9 % initial dose
  Cpeak (peak plasma HMB concentration): 238.6 ± 16.0 nmol/mL
  AUC plasma HMB: 53,395 ± 2,862 nmol/1440 min
  tpeak: 41.9 ± 5.8 min
[2]; listed as FASW
  24 h Urine HMB, % initial dose: 17.8±2.9 % initial dose
  Cpeak (peak plasma HMB concentration): 238.6 ± 16.0 nmol/mL
  time to peak plasma HMB concentration: 41.9 ± 5.8 min
  AUC greater than for CaHMB capsules: 15.4%
[2]; both sexes, human, plasma, oral, 0.8 g
  half-life: 150 ± 7.8 min
[2]; both sexes, human, plasma, oral, 0.8 g, read-out: Clearance
  Clearance: 67.3 ± 3.2 mL/min
